# Article PMC9817970 (Cancers, 2022)
# Tests used:
# Test in all cases: Kinase panel profiling
# Assay type in all cases: biochemical
# Conditions in all cases: 10 μM ATP
# MELK = molecular target: T1, MELK (Homo sapiens, UniProt Q14680)
# T1 construct: purchased Reaction Biology Corp
# Procedure: (§1) Kinase panel profiling was conducted by Reaction Biology Corp. (San Diego, CA, USA). A single dose (1.0 μM) of 6r was tested against 371 recombinant human kinases in the presence of 10 μM ATP.
# RSK3 = molecular target: T2, RSK3 (Homo sapiens, UniProt Q15349)
# T2 construct: purchased Reaction Biology Corp
# Procedure: as §1
# STK33 = molecular target: T3, STK33 (Homo sapiens, UniProt Q9BYT3)
# T3 construct: purchased Reaction Biology Corp
# Procedure: as §1
# CDK2/cyclin O = molecular target: T4, CDK2/cyclin O (Homo sapiens, UniProt P24941)
# T4 construct: purchased Reaction Biology Corp
# Procedure: as §1
# MST3/STK24 = molecular target: T5, MST3/STK24 (Homo sapiens, UniProt Q9Y6E0)
# T5 construct: purchased Reaction Biology Corp
# T5 sequence (Q9Y6E0 whole entry): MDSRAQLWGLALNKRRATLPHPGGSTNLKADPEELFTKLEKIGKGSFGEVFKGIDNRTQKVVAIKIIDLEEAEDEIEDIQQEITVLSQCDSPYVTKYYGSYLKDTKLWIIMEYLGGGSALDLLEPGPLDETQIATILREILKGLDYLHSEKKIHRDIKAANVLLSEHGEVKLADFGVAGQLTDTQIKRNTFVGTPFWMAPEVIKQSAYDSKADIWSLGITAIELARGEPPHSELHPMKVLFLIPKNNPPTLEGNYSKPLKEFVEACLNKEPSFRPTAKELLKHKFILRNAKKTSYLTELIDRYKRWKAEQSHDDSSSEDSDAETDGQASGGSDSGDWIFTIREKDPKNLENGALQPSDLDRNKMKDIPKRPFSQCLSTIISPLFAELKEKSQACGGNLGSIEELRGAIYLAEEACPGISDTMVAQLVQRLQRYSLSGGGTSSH
# Procedure: as §1
# JAK2 = molecular target: T6, JAK2 (Homo sapiens, UniProt O60674)
# T6 construct: purchased Reaction Biology Corp
# Procedure: as §1
# SGK2 = molecular target: T7, SGK2 (Homo sapiens, UniProt Q9HBY8)
# T7 construct: purchased Reaction Biology Corp
# Procedure: as §1
# GRK2 = molecular target: T8, GRK2 (Homo sapiens, UniProt P25098)
# T8 construct: purchased Reaction Biology Corp
# Procedure: as §1
# CK1a1 = molecular target: T9, CK1a1 (Homo sapiens, UniProt P48729)
# T9 construct: purchased Reaction Biology Corp
# Procedure: as §1
# EPHA4 = molecular target: T10, EPHA4 (Homo sapiens, UniProt P54764)
# T10 construct: purchased Reaction Biology Corp
# Procedure: as §1
# FES/FPS = molecular target: T11, FES/FPS (Homo sapiens, UniProt P07332)
# T11 construct: purchased Reaction Biology Corp
# Procedure: as §1
# HIPK1 = molecular target: T12, HIPK1 (Homo sapiens, UniProt Q86Z02)
# T12 construct: purchased Reaction Biology Corp
# Procedure: as §1
# MASTL = molecular target: T13, MASTL (Homo sapiens, UniProt Q96GX5)
# T13 construct: purchased Reaction Biology Corp
# Procedure: as §1
# CTK/MATK = molecular target: T14, CTK/MATK (Homo sapiens, UniProt P42679)
# T14 construct: purchased Reaction Biology Corp
# Procedure: as §1
# ZIPK/DAPK3 = molecular target: T15, ZIPK/DAPK3 (Homo sapiens, UniProt O43293)
# T15 construct: purchased Reaction Biology Corp
# Procedure: as §1
# TAOK3/JIK = molecular target: T16, TAOK3/JIK (Homo sapiens, UniProt Q9H2K8)
# T16 construct: purchased Reaction Biology Corp
# Procedure: as §1
# MKK4 = molecular target: T17, MKK4 (Homo sapiens, UniProt P45985)
# T17 construct: purchased Reaction Biology Corp
# Procedure: as §1
# PKN1/PRK1 = molecular target: T18, PKN1/PRK1 (Homo sapiens, UniProt Q16512)
# T18 construct: purchased Reaction Biology Corp
# Procedure: as §1
# ERK7/MAPK15 = molecular target: T19, ERK7/MAPK15 (Homo sapiens, UniProt Q8TD08)
# T19 construct: purchased Reaction Biology Corp
# Procedure: as §1
# CDK6/cyclin D3 = molecular target: T20, CDK6/cyclin D3 (Homo sapiens, UniProt Q00534)
# T20 construct: purchased Reaction Biology Corp
# Procedure: as §1
# PDGFRb = molecular target: T21, PDGFRb (Homo sapiens, UniProt P09619)
# T21 construct: purchased Reaction Biology Corp
# T21 sequence (P09619 33-1106): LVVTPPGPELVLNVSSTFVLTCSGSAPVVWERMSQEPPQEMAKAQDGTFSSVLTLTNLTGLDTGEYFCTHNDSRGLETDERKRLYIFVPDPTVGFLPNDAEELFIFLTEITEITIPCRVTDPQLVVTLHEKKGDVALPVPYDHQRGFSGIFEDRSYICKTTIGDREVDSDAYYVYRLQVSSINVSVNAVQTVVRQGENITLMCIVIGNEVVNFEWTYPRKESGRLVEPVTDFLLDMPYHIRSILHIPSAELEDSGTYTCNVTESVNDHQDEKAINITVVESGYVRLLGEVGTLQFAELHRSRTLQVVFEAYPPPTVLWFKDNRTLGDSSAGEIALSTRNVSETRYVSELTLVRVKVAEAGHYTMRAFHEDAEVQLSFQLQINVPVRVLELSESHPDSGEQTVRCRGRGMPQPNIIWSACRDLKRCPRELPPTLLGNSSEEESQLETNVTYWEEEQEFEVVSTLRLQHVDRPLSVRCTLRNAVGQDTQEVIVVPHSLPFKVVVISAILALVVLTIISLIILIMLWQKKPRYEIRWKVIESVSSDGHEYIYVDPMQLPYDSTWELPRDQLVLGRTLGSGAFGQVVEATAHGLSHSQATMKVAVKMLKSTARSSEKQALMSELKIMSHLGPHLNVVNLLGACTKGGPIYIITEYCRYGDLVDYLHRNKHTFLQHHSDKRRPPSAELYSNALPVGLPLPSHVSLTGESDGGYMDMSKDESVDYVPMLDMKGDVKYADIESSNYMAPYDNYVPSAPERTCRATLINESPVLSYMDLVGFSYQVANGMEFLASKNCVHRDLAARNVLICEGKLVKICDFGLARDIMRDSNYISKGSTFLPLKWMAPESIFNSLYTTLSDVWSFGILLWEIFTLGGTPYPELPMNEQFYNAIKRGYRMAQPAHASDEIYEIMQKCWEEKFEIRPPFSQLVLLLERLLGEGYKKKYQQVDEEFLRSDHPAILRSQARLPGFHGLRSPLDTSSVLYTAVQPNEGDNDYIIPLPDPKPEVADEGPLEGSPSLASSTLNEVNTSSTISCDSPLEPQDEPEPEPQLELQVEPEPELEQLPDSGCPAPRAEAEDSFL
# Procedure: as §1
# P38a/MAPK14 = molecular target: T22, P38a/MAPK14 (Homo sapiens, UniProt Q16539)
# T22 construct: purchased Reaction Biology Corp
# Procedure: as §1
# MLK3/MAP3K11 = molecular target: T23, MLK3/MAP3K11 (Homo sapiens, UniProt Q16584)
# T23 construct: purchased Reaction Biology Corp
# T23 sequence (Q16584 whole entry): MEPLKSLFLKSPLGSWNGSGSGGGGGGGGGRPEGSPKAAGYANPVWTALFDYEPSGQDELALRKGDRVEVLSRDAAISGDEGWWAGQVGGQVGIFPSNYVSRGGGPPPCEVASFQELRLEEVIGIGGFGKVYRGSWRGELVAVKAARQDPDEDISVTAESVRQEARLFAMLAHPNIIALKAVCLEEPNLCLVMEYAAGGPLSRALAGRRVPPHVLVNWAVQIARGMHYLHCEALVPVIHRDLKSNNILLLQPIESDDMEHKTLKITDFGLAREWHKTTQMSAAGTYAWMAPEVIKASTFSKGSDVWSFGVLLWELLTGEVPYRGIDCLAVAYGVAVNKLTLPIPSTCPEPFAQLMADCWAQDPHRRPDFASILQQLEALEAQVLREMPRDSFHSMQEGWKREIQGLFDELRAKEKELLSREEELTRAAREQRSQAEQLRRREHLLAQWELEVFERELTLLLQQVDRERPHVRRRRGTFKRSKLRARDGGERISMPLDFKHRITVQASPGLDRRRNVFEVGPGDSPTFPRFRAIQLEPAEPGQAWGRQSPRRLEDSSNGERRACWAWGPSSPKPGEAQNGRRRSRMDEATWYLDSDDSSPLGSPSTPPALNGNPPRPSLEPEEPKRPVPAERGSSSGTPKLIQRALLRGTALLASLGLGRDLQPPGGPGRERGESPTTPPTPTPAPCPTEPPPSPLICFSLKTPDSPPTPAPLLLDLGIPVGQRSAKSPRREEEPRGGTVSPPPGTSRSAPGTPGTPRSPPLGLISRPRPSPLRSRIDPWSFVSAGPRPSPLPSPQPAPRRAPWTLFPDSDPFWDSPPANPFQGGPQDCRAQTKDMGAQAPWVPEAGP
# Procedure: as §1
# CK1epsilon = molecular target: T24, CK1epsilon (Homo sapiens, UniProt P49674)
# T24 construct: purchased Reaction Biology Corp
# T24 sequence (P49674 whole entry): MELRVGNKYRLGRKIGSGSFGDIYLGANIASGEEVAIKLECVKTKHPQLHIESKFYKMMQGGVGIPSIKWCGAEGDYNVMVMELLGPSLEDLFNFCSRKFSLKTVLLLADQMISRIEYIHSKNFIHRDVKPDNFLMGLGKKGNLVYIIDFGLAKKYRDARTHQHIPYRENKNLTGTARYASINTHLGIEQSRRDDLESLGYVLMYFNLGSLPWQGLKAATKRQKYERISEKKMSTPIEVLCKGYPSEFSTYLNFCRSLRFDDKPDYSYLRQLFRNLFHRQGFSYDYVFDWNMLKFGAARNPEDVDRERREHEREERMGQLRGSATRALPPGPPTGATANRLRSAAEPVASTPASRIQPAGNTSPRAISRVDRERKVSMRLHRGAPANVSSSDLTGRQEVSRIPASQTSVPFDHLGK
# Procedure: as §1
# MAST3 = molecular target: T25, MAST3 (Homo sapiens, UniProt O60307)
# T25 construct: purchased Reaction Biology Corp
# Procedure: as §1
# PKCzeta = molecular target: T26, PKCzeta (Homo sapiens, UniProt Q05513)
# T26 construct: purchased Reaction Biology Corp
# Procedure: as §1
# HPK1/MAP4K1 = molecular target: T27, HPK1/MAP4K1 (Homo sapiens, UniProt Q92918)
# T27 construct: purchased Reaction Biology Corp
# Procedure: as §1
# LRRK2 = molecular target: T28, LRRK2 (Homo sapiens, UniProt Q5S007)
# T28 construct: purchased Reaction Biology Corp
# Procedure: as §1
# CDK9/CYCLIN K = molecular target: T29, CDK9/CYCLIN K (Homo sapiens, UniProt P50750)
# T29 construct: purchased Reaction Biology Corp
# Procedure: as §1
# HIPK4 = molecular target: T30, HIPK4 (Homo sapiens, UniProt Q8NE63)
# T30 construct: purchased Reaction Biology Corp
# T30 sequence (Q8NE63 whole entry): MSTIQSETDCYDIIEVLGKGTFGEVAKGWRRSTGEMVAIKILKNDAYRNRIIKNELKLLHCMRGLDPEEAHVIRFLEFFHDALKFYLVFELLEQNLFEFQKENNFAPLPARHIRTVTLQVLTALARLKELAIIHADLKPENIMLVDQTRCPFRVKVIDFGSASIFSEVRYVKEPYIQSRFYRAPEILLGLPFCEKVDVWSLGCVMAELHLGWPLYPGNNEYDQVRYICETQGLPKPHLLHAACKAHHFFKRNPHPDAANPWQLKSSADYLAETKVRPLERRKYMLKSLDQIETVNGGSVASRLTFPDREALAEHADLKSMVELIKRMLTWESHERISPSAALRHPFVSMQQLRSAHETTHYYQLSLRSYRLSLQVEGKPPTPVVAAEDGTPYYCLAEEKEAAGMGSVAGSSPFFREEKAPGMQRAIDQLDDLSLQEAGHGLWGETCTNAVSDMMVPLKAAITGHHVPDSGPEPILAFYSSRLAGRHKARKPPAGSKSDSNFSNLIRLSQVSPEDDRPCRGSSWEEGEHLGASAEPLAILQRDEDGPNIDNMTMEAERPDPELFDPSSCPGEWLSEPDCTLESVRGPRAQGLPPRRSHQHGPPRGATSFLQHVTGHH
# Procedure: as §1
# SIK3 = molecular target: T31, SIK3 (Homo sapiens, UniProt Q9Y2K2)
# T31 construct: purchased Reaction Biology Corp
# Procedure: as §1
# PKG1b = molecular target: T32, PKG1b (Homo sapiens, UniProt Q13976)
# T32 construct: purchased Reaction Biology Corp
# Procedure: as §1
# TTBK1 = molecular target: T33, TTBK1 (Homo sapiens, UniProt Q5TCY1)
# T33 construct: purchased Reaction Biology Corp
# Procedure: as §1
# KDR/VEGFR2 = molecular target: T34, KDR/VEGFR2 (Homo sapiens, UniProt P35968)
# T34 construct: purchased Reaction Biology Corp
# Procedure: as §1
# FGFR1 = molecular target: T35, FGFR1 (Homo sapiens, UniProt P11362)
# T35 construct: purchased Reaction Biology Corp
# T35 sequence (P11362 22-822): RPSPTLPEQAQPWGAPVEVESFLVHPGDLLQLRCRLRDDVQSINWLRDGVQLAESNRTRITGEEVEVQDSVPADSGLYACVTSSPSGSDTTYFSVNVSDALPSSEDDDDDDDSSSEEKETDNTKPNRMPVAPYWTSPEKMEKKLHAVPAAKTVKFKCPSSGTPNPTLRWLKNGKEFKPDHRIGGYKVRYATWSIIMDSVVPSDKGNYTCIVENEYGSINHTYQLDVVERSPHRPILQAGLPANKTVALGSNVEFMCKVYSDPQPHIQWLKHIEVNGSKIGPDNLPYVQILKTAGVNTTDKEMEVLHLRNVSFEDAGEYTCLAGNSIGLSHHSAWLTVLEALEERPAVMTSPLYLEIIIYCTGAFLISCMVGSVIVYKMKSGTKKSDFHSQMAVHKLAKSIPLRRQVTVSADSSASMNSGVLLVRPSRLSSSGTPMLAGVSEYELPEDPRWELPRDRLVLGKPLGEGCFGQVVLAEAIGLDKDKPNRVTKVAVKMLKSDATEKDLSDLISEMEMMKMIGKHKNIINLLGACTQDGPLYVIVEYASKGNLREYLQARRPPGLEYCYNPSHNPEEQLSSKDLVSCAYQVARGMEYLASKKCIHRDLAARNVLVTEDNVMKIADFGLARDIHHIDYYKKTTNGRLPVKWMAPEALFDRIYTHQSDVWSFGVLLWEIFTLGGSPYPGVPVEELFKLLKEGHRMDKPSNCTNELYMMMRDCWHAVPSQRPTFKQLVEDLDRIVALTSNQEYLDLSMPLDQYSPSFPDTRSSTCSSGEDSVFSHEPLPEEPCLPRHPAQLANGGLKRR
# Procedure: as §1
# MEK3 = molecular target: T36, MEK3 (Homo sapiens, UniProt P46734)
# T36 construct: purchased Reaction Biology Corp
# Procedure: as §1
# CAMK1b = molecular target: T37, CAMK1b (Homo sapiens, UniProt Q6P2M8)
# T37 construct: purchased Reaction Biology Corp
# Procedure: as §1
# TYK1/LTK = molecular target: T38, TYK1/LTK (Homo sapiens, UniProt P29376)
# T38 construct: purchased Reaction Biology Corp
# Procedure: as §1
# PKG1a = molecular target: T39, PKG1a (Homo sapiens, UniProt Q13976)
# T39 construct: purchased Reaction Biology Corp
# Procedure: as §1
# SGK3/SGKL = molecular target: T40, SGK3/SGKL (Homo sapiens, UniProt Q96BR1)
# T40 construct: purchased Reaction Biology Corp
# Procedure: as §1
# PBK/TOPK = molecular target: T41, PBK/TOPK (Homo sapiens, UniProt Q96KB5)
# T41 construct: purchased Reaction Biology Corp
# Procedure: as §1
# JNK2 = molecular target: T42, JNK2 (Homo sapiens, UniProt P45984)
# T42 construct: purchased Reaction Biology Corp
# Procedure: as §1
# T1 sequence (Q14680 whole entry): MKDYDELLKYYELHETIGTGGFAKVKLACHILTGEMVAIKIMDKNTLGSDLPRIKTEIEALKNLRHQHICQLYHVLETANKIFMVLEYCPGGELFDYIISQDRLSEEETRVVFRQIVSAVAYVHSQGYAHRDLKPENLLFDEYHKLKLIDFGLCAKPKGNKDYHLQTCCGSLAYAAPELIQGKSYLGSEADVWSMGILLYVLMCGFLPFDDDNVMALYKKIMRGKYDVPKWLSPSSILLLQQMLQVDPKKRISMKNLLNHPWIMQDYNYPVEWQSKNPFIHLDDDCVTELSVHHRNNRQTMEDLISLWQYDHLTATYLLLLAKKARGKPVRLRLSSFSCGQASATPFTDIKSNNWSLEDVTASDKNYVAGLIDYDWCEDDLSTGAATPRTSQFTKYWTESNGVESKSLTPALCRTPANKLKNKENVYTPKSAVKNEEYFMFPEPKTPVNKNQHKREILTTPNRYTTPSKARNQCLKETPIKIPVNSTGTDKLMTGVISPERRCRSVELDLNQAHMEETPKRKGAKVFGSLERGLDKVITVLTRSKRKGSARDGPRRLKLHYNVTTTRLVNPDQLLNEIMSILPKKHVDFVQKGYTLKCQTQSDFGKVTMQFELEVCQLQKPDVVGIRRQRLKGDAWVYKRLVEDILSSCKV
smiles,measurement,setting,value
Cc1ccc(NC(=O)c2ccc(CN3CCN(C)CC3)c(C(F)(F)F)c2)cc1-c1cnc2sc(N)nc2c1 [6r],inhibition at 1 µM,MELK,17.1%
same,inhibition at 1 µM,RSK3,5.4%
same,inhibition at 1 µM,STK33,9.5%
same,inhibition at 1 µM,CDK2/cyclin O,12.3%
same,inhibition at 1 µM,MST3/STK24,12.5%
same,inhibition at 1 µM,JAK2,2%
same,inhibition at 1 µM,SGK2,3.8%
same,inhibition at 1 µM,GRK2,0%
same,inhibition at 1 µM,CK1a1,13.7%
same,inhibition at 1 µM,EPHA4,64.7%
same,inhibition at 1 µM,FES/FPS,39.7%
same,inhibition at 1 µM,HIPK1,5.2%
same,inhibition at 1 µM,MASTL,1.3%
same,inhibition at 1 µM,CTK/MATK,8.1%
same,inhibition at 1 µM,ZIPK/DAPK3,6.7%
same,inhibition at 1 µM,TAOK3/JIK,17.8%
same,inhibition at 1 µM,MKK4,6%
same,inhibition at 1 µM,PKN1/PRK1,15.1%
same,inhibition at 1 µM,ERK7/MAPK15,4.2%
same,inhibition at 1 µM,CDK6/cyclin D3,4.2%
same,inhibition at 1 µM,PDGFRb,94.2%
same,inhibition at 1 µM,P38a/MAPK14,96.5%
same,inhibition at 1 µM,MLK3/MAP3K11,23.7%
same,inhibition at 1 µM,CK1epsilon,24.2%
same,inhibition at 1 µM,MAST3,0%
same,inhibition at 1 µM,PKCzeta,0%
same,inhibition at 1 µM,HPK1/MAP4K1,0%
same,inhibition at 1 µM,LRRK2,5.1%
same,inhibition at 1 µM,CDK9/CYCLIN K,0%
same,inhibition at 1 µM,HIPK4,8.7%
same,inhibition at 1 µM,SIK3,0%
same,inhibition at 1 µM,PKG1b,3.3%
same,inhibition at 1 µM,TTBK1,9.9%
same,inhibition at 1 µM,KDR/VEGFR2,77.8%
same,inhibition at 1 µM,FGFR1,20.7%
same,inhibition at 1 µM,MEK3,5.2%
same,inhibition at 1 µM,CAMK1b,5.4%
same,inhibition at 1 µM,TYK1/LTK,1%
same,inhibition at 1 µM,PKG1a,10.1%
same,inhibition at 1 µM,SGK3/SGKL,0.8%
same,inhibition at 1 µM,PBK/TOPK,4.3%
same,inhibition at 1 µM,JNK2,31.8%
